# Legend:
# [1] = test system: DT-C cells (pGV-P-transfected v-ki-ras-transformed NIH3T3 cells); assay: Luciferase activity in control DT-C cells (IC50-C): non-specific transcription-inhibitory effect or cytotoxicity; assay type: cell-based, mouse; conditions: tested concentration nearest to 50% inhibition in DT-C cells; index of non-specific transcription inhibition or cytotoxicity
# From the text: Test Example 1 Inhibitory Effect Against Cellular Signaling Derived From Ras Oncogene Products
# 1) Establishment of Cell Lines Used in Assay
# Based on the reporter plasmid (pGV-P (Toyo Ink, Japan)), in which luciferase gene was ligated to SV40-derived minimal promoter, we constructed a plasmid designated pRRE3-luc by inserting 3 copies of chemically synthesized oligonucleotides (Sequence: CAGGATATGACTCT, derived from mouse NVL-3 (M. A. Reddy et al.(1992)Mol. Endocrinol., 6, 1051)) into upstream of the promoter. v-ki-ras-transformed NIH3T3 cells (DT cells, provided by Dr. Makoto Noda (Kyoto Univ., School of medicine)) were transfected with this plasmid by liposome-mediated transfection and transfected cell lines stably incorporated and maintained each plasmid were obtained. We named pGV-P and pRRE3-transfected cell line as DT-C and DT-R, respectively and used in the assay described below.
# 2) Preparation of Samples
# i) All the cell lines were cultured in Dulbecco's Modified Essential Medium (DMEM: 10% Fetal Calf Serum(FCS: Hyclone, USA)) including […] kanamycin (Meiji Seika, Japan) in humidified incubator under condition of 5% CO2 at 37° C.
# ii) DT-C and DT-R cells were seeded at 2500 cells/well into flat-bottom 96 well multiplate (Sumitomo bakelite) and incubated for 24 hours.
# iii) Test compounds were prepared as 1 mg/ml DMSO solution.
# iv) The solution of test compounds were added to the culture. Tested compounds are used at the concentration from […] to 0.51 ng/ml with by 3-fold dilution.
# v) After 24 hours, the culture supernatant was completely aspirated and […] of cell-lysing solution (PGC-50 (Toyo Ink, Japan)) was added before cells were dried up. In order to the cells were lysed completely, multiwell plates were left at room temperature for 10 to 30 min. The plates were wrapped up and stored at −20° C. till the day of measurement.
# 3) Measurement of Samples
# i) Melt the samples by putting 96 well multiplate at 37° C. and add 90 μl/well 25 mM Tris (pH 7.5).
# ii) Transfer 50 μl of the sample (110 μl) to the 96 well microplate for measurement (Microlite 1 (Dynatech)).
# iii) Measure the samples by the luminometer, LUMINOUS CT9000D (Dia-Yatron, Japan). We used Pickagene luminescence kit PGL2000 or LT2.0 (Toyo Ink, Japan) as substrates for luminescence measurement (50 μl/well).
# 4) Judgment of the Results
# i) The luciferase activity of DT-C cells and DT-R cells were plotted in the graph where the relative activity and the compound concentration were expressed as Y-axis and X-axis, respectively. We judged by the degree of dissociation between the activities of DT-C cells and DT-R cells as an index.
# ii) Concretely, efficacy of the compound was expressed by two values described below.
# b) Among the points of concentration tested, the concentration which is the nearest to 50% inhibition concentration at DT-C cells (IC50-C), was shown as an index of non-specific transcription-inhibitory effect or of cytotoxicity. In case of positive compounds, 50% inhibition concentration above the area of active concentration in DT-C cells was expressed as IC50-C.
# [2] = test system: human pancreas cancer PANC-1; assay: In vitro cell growth inhibition test, MTT assay; assay type: cell-based; conditions: MTT assay 4 days after compound addition
# Outline: (§1)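 Growth inhibition was measured by MTT assay across a panel of human tumour cell lines that also included pancreatic cancer PANC-1.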
# human colon cancer HT29 = assay: In vitro cell growth inhibition test, MTT assay; assay type: cell-based; conditions: MTT assay 4 days after compound addition
# Outline: as §1
# [3] = test system: human squamous lung cancer Ma44; assay: In vitro cell growth inhibition test, MTT assay; assay type: cell-based; conditions: MTT assay 4 days after compound addition
# Outline: as §1
# [4] = test system: human lung adenocarcinoma A549; assay: In vitro cell growth inhibition test, MTT assay; assay type: cell-based; conditions: MTT assay 4 days after compound addition
# Outline: as §1
# [5] = test system: human squamous lung cancer RERF-RC-AI; assay: In vitro cell growth inhibition test, MTT assay; assay type: cell-based; conditions: MTT assay 4 days after compound addition
# Outline: as §1
# [6] = test system: DT-R cells (pRRE3-luc-transfected v-ki-ras-transformed NIH3T3 cells); signal derived from Ras oncogene products; assay: Inhibitory effect against cellular signaling derived from Ras oncogene products: luciferase reporter, dissociation of DT-R from DT-C activity (MAC); assay type: cell-based, mouse; conditions: minimal tested concentration at which luciferase activities of DT-C cells and DT-R cells dissociated
# Outline: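 DT-R (pRRE3-luc) and control DT-C (pGV-P) v-Ki-ras NIH3T3 cells were exposed 24 h to compound in 3-fold dilutions in DMEM/10% FCS at 37 °C, then lysed for luciferase luminescence. MAC is the lowest tested concentration at which DT-R and DT-C activities dissociate.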
Compound,"IC50, PANC-1 [2] [ng/mL]","IC50, HT29 (human colon cancer HT29) [ng/mL]","IC50, Ma44 [3] [ng/mL]","IC50, A549 [4] [ng/mL]","IC50, RERF-LC-AI [5] [ng/mL]",IC50-C [1] [µg/mL],MAC (Minimal Active Concentration) [6] [µg/mL]
CCCNC(=Nc1nc(CC)ncc1CSc1nnc(-c2ccc(F)cc2N)o1)NCCC [Compound A-140],12,13,47,22,15,3.33,0.0137
CCCNC(=Nc1nc(C)ncc1CSc1nnc(-c2ccc(Cl)cc2)o1)NCCC [Compound A-142],15,32,21,38,18,1.11,0.0412
CCCNC(=Nc1nc(C)ncc1CSc1nnc(-c2ccc(C)cc2)o1)NCCC [Compound A-143],20,24,33,52,23,1.11,0.0412
CCCNC(=Nc1nc(C)ncc1CSc1nnc(-c2ccc(N)cc2)o1)NCCC [Compound A-144],16,6,31,19,7,>10,0.0137
CNC(=Nc1nc(C)ncc1CSc1nnc(-c2ccc([N+](=O)[O-])cc2)o1)NC [Compound A-145],14,7,32,90,5,>10,0.0412
CCCNC(=Nc1nc(C)ncc1CSc1nnc(-c2ccc([N+](=O)[O-])cc2)o1)NC [Compound A-146],24,14,52,180,11,>10,0.0137
CNC(=Nc1nc(C)ncc1CSc1nnc(-c2ccc(N)cc2)o1)NC [Compound A-147],18,8,71,100,8,>10,0.123
CCCNC(=Nc1nc(CC)ncc1CSc1nnc(-c2ccc([N+](=O)[O-])cc2)o1)NCC [Compound A-149],41,34,85,25,26,3.33,0.123
CCc1ncc(CSc2nnc(-c3ccc([N+](=O)[O-])cc3)o2)c(N=C(NC)NC)n1 [Compound A-152],13,82,39,69,6,>10,0.123
CCc1ncc(CSc2nnc(-c3ccc(N)cc3)o2)c(N=C(NC)NC)n1 [Compound A-153],22,15,89,67,11,>10,0.0412
CCNC(=Nc1nc(C)ncc1CSc1nnc(-c2ccc([N+](=O)[O-])cc2OC)o1)NCC [Compound A-161],5.3,5.5,7.1,12,6.8,>10,0.0412
CNC(=Nc1nc(C)ncc1CSc1nnc(-c2ccc([N+](=O)[O-])cc2OC)o1)NC [Compound A-162],9.3,6.7,14,28,8.5,>10,0.123

# Second part, led by results:
"IC50, PANC-1 [2] [ng/mL]","IC50, HT29 (human colon cancer HT29) [ng/mL]","IC50, Ma44 [3] [ng/mL]","IC50, A549 [4] [ng/mL]","IC50, RERF-LC-AI [5] [ng/mL]",Compound,IC50-C [1] [µg/mL],MAC (Minimal Active Concentration) [6] [µg/mL]
5.9,5.5,17,12,2.8,CCNC(=Nc1nc(C)ncc1CSc1nnc(-c2ccc(N)cc2)o1)NC [Compound A-168],>10,0.0412
6.5,7.7,5.4,14,2.7,CNC(=Nc1nc(C)ncc1CSc1nnc(-c2ccc([N+](=O)[O-])cc2)o1)NC(C)C [Compound A-170],>10,<0.000508
14,12,76,32,6.7,CNC(=Nc1ncncc1CSc1nnc(-c2ccc(N)cc2)o1)NC [Compound A-174],>10,0.37
10,10,15,17,5.3,CCNC(=Nc1nc(C)ncc1CSc1nnc(-c2ccc([N+](=O)[O-])cc2)o1)NCC(F)(F)F [Compound A-175],3.33,0.0137
7.3,11,16,14,5.6,CCNC(=Nc1nc(C)ncc1CSc1nnc(-c2ccc(N)cc2)o1)NC(C)C [Compound A-182],3.3,0.0137
17,14,57,48,14,CCNC(=Nc1nc(C)ncc1CSc1nnc(-c2ccc(N)cc2)o1)NCC.Cl.Cl [Compound A-186],>10,0.0412
14,13,17,25,12,CCNC(=Nc1nc(C)ncc1CSc1nnc(-c2ccc([N+](=O)[O-])cc2)o1)NCC.Cl [Compound A-187],>10,0.0137
85,39,320,330,37,CCNC(=Nc1nc(C)ncc1CSc1nnc(-c2ccc(N)nc2)o1)NCC [Compound D-6],>10,0.370

# From patent US6420367B1, “Pyrimidine derivatives exhibiting antitumor activity” (Shionogo & Co., Ltd., priority 1998, dated 2002)
